# What was measured:
# Type in all cases: biochemical
# protease = experiment: Protease activity retention in detergent use solution (4000 ppm, 5 GPG water; peptidyl substrate, glycine buffer pH 9.0); details: for Relative Protease Enzyme Activity: use solution at 120° F.
# How it was run: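 Detergent use solutions at 4000 ppm in 5 GPG water were held at 120° F with stirring and sampled up to 4 h, with aliquots flash-frozen. Activity was read on a peptidyl substrate in glycine buffer pH 9.0 by absorbance against a calibration curve. Retention is % activity relative to the t=0 sample.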
# lipase = experiment: Lipase activity retention in detergent use solution (4000 ppm, 5 GPG water; p-nitrophenyl valerate, TRIS buffer pH 8.0); details: for Relative Lipase Enzyme Activity in a Use Solution of the All Ash Detergent Composition: Table 6F, 120º F.; for Relative Lipase Enzyme Activity: base formula
# How it was run: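 Lipase stability was measured in a detergent use solution under conditions mimicking presoak or manual warewash, with stirring in a water bath. Aliquots were taken over time and flash-frozen. Thawed samples were diluted in TRIS buffer at pH 8.0 and assayed with p-nitrophenyl valerate as substrate on a plate reader. Activity is reported as % retained relative to the time=0 sample.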
# [1] = test system: enzyme (protease, amylase, lipase); experiment: Overall effects of phosphonates on enzyme activity (Table 3); details: overall effect of the phosphonate on enzyme activity in the detergent use solution
# How it was run: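 Protease, amylase and lipase activity in detergent use solutions with varied phosphonate levels, 4000 ppm in 5 GPG water at 120° F., sampled up to 4 h and frozen at −80° C. before assay. Activity given as % retention relative to t=0 (100%).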
smiles,measurement,setting,value
"O=P(O)(O)CN(CP(=O)(O)O)CP(=O)(O)O [ATMP, Aminotri (methylene phosphonic acid)]",Relative Protease Enzyme Activity,"protease; All Ash formula, phosphonate 0.3 wt-%, time 0 min",100.00%
same,Relative Protease Enzyme Activity,"protease; All Ash formula, phosphonate 0.3 wt-%, time 5 min",84.60%
same,Relative Protease Enzyme Activity,"protease; All Ash formula, phosphonate 0.3 wt-%, time 10 min",75.67%
same,Relative Protease Enzyme Activity,"protease; All Ash formula, phosphonate 0.3 wt-%, time 20 min",53.32%
same,Relative Protease Enzyme Activity,"protease; All Ash formula, phosphonate 0.3 wt-%, time 40 min",33.78%
same,Relative Protease Enzyme Activity,"protease; All Ash formula, phosphonate 0.3 wt-%, time 60 min",22.22%
same,Relative Protease Enzyme Activity,"protease; All Ash formula, phosphonate 0.3 wt-%, time 90 min",15.40%
same,Relative Protease Enzyme Activity,"protease; All Ash formula, phosphonate 0.3 wt-%, time 120 min",11.13%
same,Relative Protease Enzyme Activity,"protease; All Ash formula, phosphonate 0.3 wt-%, time 150 min",9.39%
same,Relative Protease Enzyme Activity,"protease; All Ash formula, phosphonate 0.3 wt-%, time 180 min",7.41%
same,Relative Protease Enzyme Activity,"protease; All Ash formula, phosphonate 0.3 wt-%, time 210 min",6.17%
same,Relative Protease Enzyme Activity,"protease; All Ash formula, phosphonate 0.3 wt-%, time 240 min",5.58%
same,protease stability in all ash formula,"protease; all ash formula, versus same composition with PBTC or HEDP without amine(s), FIG. 2D",more stable
same,Relative Protease Enzyme Activity,"protease; base formula, phosphonate 0.3 wt-%, time 0 min",100.00%
same,Relative Protease Enzyme Activity,"protease; base formula, phosphonate 0.3 wt-%, time 5 min",94.95%
same,Relative Protease Enzyme Activity,"protease; base formula, phosphonate 0.3 wt-%, time 10 min",94.68%
same,Relative Protease Enzyme Activity,"protease; base formula, phosphonate 0.3 wt-%, time 20 min",89.76%
same,Relative Protease Enzyme Activity,"protease; base formula, phosphonate 0.3 wt-%, time 40 min",87.06%
same,Relative Protease Enzyme Activity,"protease; base formula, phosphonate 0.3 wt-%, time 60 min",83.93%
same,Relative Protease Enzyme Activity,"protease; base formula, phosphonate 0.3 wt-%, time 90 min",80.79%
same,Relative Protease Enzyme Activity,"protease; base formula, phosphonate 0.3 wt-%, time 120 min",76.31%
same,Relative Protease Enzyme Activity,"protease; base formula, phosphonate 0.3 wt-%, time 150 min",73.96%
same,Relative Protease Enzyme Activity,"protease; base formula, phosphonate 0.3 wt-%, time 180 min",70.37%
same,Relative Protease Enzyme Activity,"protease; base formula, phosphonate 0.3 wt-%, time 210 min",65.72%
same,Relative Protease Enzyme Activity,"protease; base formula, phosphonate 0.3 wt-%, time 240 min",63.75%
same,Relative Protease Enzyme Activity,"protease; base formula, phosphonate 0.6 wt-%, time 0 min",100.00%
same,Relative Protease Enzyme Activity,"protease; base formula, phosphonate 0.6 wt-%, time 5 min",91.70%
same,Relative Protease Enzyme Activity,"protease; base formula, phosphonate 0.6 wt-%, time 10 min",102.58%
same,Relative Protease Enzyme Activity,"protease; base formula, phosphonate 0.6 wt-%, time 20 min",100.03%
same,Relative Protease Enzyme Activity,"protease; base formula, phosphonate 0.6 wt-%, time 40 min",97.16%
same,Relative Protease Enzyme Activity,"protease; base formula, phosphonate 0.6 wt-%, time 60 min",92.31%
same,Relative Protease Enzyme Activity,"protease; base formula, phosphonate 0.6 wt-%, time 90 min",89.99%
same,Relative Protease Enzyme Activity,"protease; base formula, phosphonate 0.6 wt-%, time 120 min",91.60%
same,Relative Protease Enzyme Activity,"protease; base formula, phosphonate 0.6 wt-%, time 150 min",86.21%
same,Relative Protease Enzyme Activity,"protease; base formula, phosphonate 0.6 wt-%, time 180 min",89.08%
same,Relative Protease Enzyme Activity,"protease; base formula, phosphonate 0.6 wt-%, time 210 min",89.86%
same,Relative Protease Enzyme Activity,"protease; base formula, phosphonate 0.6 wt-%, time 240 min",82.33%
same,Relative Protease Enzyme Activity,"protease; base formula, phosphonate at 0.1% elemental phosphorus, time 0 min",100.00%
same,Relative Protease Enzyme Activity,"protease; base formula, phosphonate at 0.1% elemental phosphorus, time 5 min",122.55%
same,Relative Protease Enzyme Activity,"protease; base formula, phosphonate at 0.1% elemental phosphorus, time 10 min",116.65%
same,Relative Protease Enzyme Activity,"protease; base formula, phosphonate at 0.1% elemental phosphorus, time 20 min",115.14%
same,Relative Protease Enzyme Activity,"protease; base formula, phosphonate at 0.1% elemental phosphorus, time 40 min",107.73%
same,Relative Protease Enzyme Activity,"protease; base formula, phosphonate at 0.1% elemental phosphorus, time 60 min",102.70%
same,Relative Protease Enzyme Activity,"protease; base formula, phosphonate at 0.1% elemental phosphorus, time 90 min",111.18%
same,Relative Protease Enzyme Activity,"protease; base formula, phosphonate at 0.1% elemental phosphorus, time 120 min",106.19%
same,Relative Protease Enzyme Activity,"protease; base formula, phosphonate at 0.1% elemental phosphorus, time 150 min",96.80%
same,Relative Protease Enzyme Activity,"protease; base formula, phosphonate at 0.1% elemental phosphorus, time 180 min",93.35%
same,Relative Protease Enzyme Activity,"protease; base formula, phosphonate at 0.1% elemental phosphorus, time 210 min",90.51%
same,Relative Protease Enzyme Activity,"protease; base formula, phosphonate at 0.1% elemental phosphorus, time 240 min",88.60%
same,Relative Lipase Enzyme Activity in a Use Solution of the All Ash Detergent Composition,"lipase; all ash formula, phosphonate 0.3 wt-%, time 0 min",100.00%
same,Relative Lipase Enzyme Activity in a Use Solution of the All Ash Detergent Composition,"lipase; all ash formula, phosphonate 0.3 wt-%, time 5 min",61.64%
same,Relative Lipase Enzyme Activity in a Use Solution of the All Ash Detergent Composition,"lipase; all ash formula, phosphonate 0.3 wt-%, time 10 min",63.66%
same,Relative Lipase Enzyme Activity in a Use Solution of the All Ash Detergent Composition,"lipase; all ash formula, phosphonate 0.3 wt-%, time 20 min",54.08%
same,Relative Lipase Enzyme Activity in a Use Solution of the All Ash Detergent Composition,"lipase; all ash formula, phosphonate 0.3 wt-%, time 40 min",41.20%
same,Relative Lipase Enzyme Activity in a Use Solution of the All Ash Detergent Composition,"lipase; all ash formula, phosphonate 0.3 wt-%, time 60 min",36.19%
same,Relative Lipase Enzyme Activity in a Use Solution of the All Ash Detergent Composition,"lipase; all ash formula, phosphonate 0.3 wt-%, time 90 min",30.66%
same,Relative Lipase Enzyme Activity in a Use Solution of the All Ash Detergent Composition,"lipase; all ash formula, phosphonate 0.3 wt-%, time 120 min",19.17%
same,Relative Lipase Enzyme Activity in a Use Solution of the All Ash Detergent Composition,"lipase; all ash formula, phosphonate 0.3 wt-%, time 150 min",23.54%
same,Relative Lipase Enzyme Activity in a Use Solution of the All Ash Detergent Composition,"lipase; all ash formula, phosphonate 0.3 wt-%, time 180 min",14.43%
same,Relative Lipase Enzyme Activity in a Use Solution of the All Ash Detergent Composition,"lipase; all ash formula, phosphonate 0.3 wt-%, time 210 min",13.63%
same,Relative Lipase Enzyme Activity in a Use Solution of the All Ash Detergent Composition,"lipase; all ash formula, phosphonate 0.3 wt-%, time 240 min",12.97%
same,lipase stability in all ash formula,"lipase; all ash formula, versus same composition with PBTC or HEDP without amine(s), FIG. 6G",more stable
same,Relative Lipase Enzyme Activity,"lipase; phosphonate 0.3 wt-%, use solution at 120° F., time 0 min",100.00%
same,Relative Lipase Enzyme Activity,"lipase; phosphonate 0.3 wt-%, use solution at 120° F., time 5 min",79.77%
same,Relative Lipase Enzyme Activity,"lipase; phosphonate 0.3 wt-%, use solution at 120° F., time 10 min",71.10%
same,Relative Lipase Enzyme Activity,"lipase; phosphonate 0.3 wt-%, use solution at 120° F., time 20 min",62.47%
same,Relative Lipase Enzyme Activity,"lipase; phosphonate 0.3 wt-%, use solution at 120° F., time 40 min",39.28%
same,Relative Lipase Enzyme Activity,"lipase; phosphonate 0.3 wt-%, use solution at 120° F., time 60 min",34.01%
same,Relative Lipase Enzyme Activity,"lipase; phosphonate 0.3 wt-%, use solution at 120° F., time 90 min",26.70%
same,Relative Lipase Enzyme Activity,"lipase; phosphonate 0.3 wt-%, use solution at 120° F., time 120 min",22.13%
same,Relative Lipase Enzyme Activity,"lipase; phosphonate 0.3 wt-%, use solution at 120° F., time 150 min",19.07%
same,Relative Lipase Enzyme Activity,"lipase; phosphonate 0.3 wt-%, use solution at 120° F., time 180 min",17.48%
same,Relative Lipase Enzyme Activity,"lipase; phosphonate 0.3 wt-%, use solution at 120° F., time 210 min",15.49%
same,Relative Lipase Enzyme Activity,"lipase; phosphonate 0.3 wt-%, use solution at 120° F., time 240 min",14.68%
same,Relative Lipase Enzyme Activity,"lipase; phosphonate 0.6 wt-%, use solution at 120º F., time 0 min",100.00%
same,Relative Lipase Enzyme Activity,"lipase; phosphonate 0.6 wt-%, use solution at 120º F., time 5 min",93.26%
same,Relative Lipase Enzyme Activity,"lipase; phosphonate 0.6 wt-%, use solution at 120º F., time 10 min",87.80%
same,Relative Lipase Enzyme Activity,"lipase; phosphonate 0.6 wt-%, use solution at 120º F., time 20 min",81.36%
same,Relative Lipase Enzyme Activity,"lipase; phosphonate 0.6 wt-%, use solution at 120º F., time 40 min",60.03%
same,Relative Lipase Enzyme Activity,"lipase; phosphonate 0.6 wt-%, use solution at 120º F., time 60 min",56.12%
same,Relative Lipase Enzyme Activity,"lipase; phosphonate 0.6 wt-%, use solution at 120º F., time 90 min",49.58%
same,Relative Lipase Enzyme Activity,"lipase; phosphonate 0.6 wt-%, use solution at 120º F., time 120 min",42.20%
same,Relative Lipase Enzyme Activity,"lipase; phosphonate 0.6 wt-%, use solution at 120º F., time 150 min",37.91%
same,Relative Lipase Enzyme Activity,"lipase; phosphonate 0.6 wt-%, use solution at 120º F., time 180 min",33.77%
same,Relative Lipase Enzyme Activity,"lipase; phosphonate 0.6 wt-%, use solution at 120º F., time 210 min",32.19%
same,Relative Lipase Enzyme Activity,"lipase; phosphonate 0.6 wt-%, use solution at 120º F., time 240 min",29.80%
same,Relative Lipase Enzyme Activity,"lipase; phosphonate at 0.1% elemental phosphorus, at 120º F. or at room temperature (as titled), time 0 min",100.00%
same,Relative Lipase Enzyme Activity,"lipase; phosphonate at 0.1% elemental phosphorus, at 120º F. or at room temperature (as titled), time 5 min",82.14%
same,Relative Lipase Enzyme Activity,"lipase; phosphonate at 0.1% elemental phosphorus, at 120º F. or at room temperature (as titled), time 10 min",78.45%
same,Relative Lipase Enzyme Activity,"lipase; phosphonate at 0.1% elemental phosphorus, at 120º F. or at room temperature (as titled), time 20 min",64.87%
same,Relative Lipase Enzyme Activity,"lipase; phosphonate at 0.1% elemental phosphorus, at 120º F. or at room temperature (as titled), time 40 min",45.84%
same,Relative Lipase Enzyme Activity,"lipase; phosphonate at 0.1% elemental phosphorus, at 120º F. or at room temperature (as titled), time 60 min",37.66%
same,Relative Lipase Enzyme Activity,"lipase; phosphonate at 0.1% elemental phosphorus, at 120º F. or at room temperature (as titled), time 90 min",30.16%
same,Relative Lipase Enzyme Activity,"lipase; phosphonate at 0.1% elemental phosphorus, at 120º F. or at room temperature (as titled), time 120 min",25.91%
same,Relative Lipase Enzyme Activity,"lipase; phosphonate at 0.1% elemental phosphorus, at 120º F. or at room temperature (as titled), time 150 min",21.51%
same,Relative Lipase Enzyme Activity,"lipase; phosphonate at 0.1% elemental phosphorus, at 120º F. or at room temperature (as titled), time 180 min",15.43%
same,Relative Lipase Enzyme Activity,"lipase; phosphonate at 0.1% elemental phosphorus, at 120º F. or at room temperature (as titled), time 210 min",17.94%
same,Relative Lipase Enzyme Activity,"lipase; phosphonate at 0.1% elemental phosphorus, at 120º F. or at room temperature (as titled), time 240 min",15.64%
same,Stability (effects on enzyme activity),[1],Yes
